# Assay results taken from ChEMBL document CHEMBL1275529, “Improved antimicrobial activity of linezolid against vancomycin-intermediate Staphylococcus aureus” (2008).
# Key:
# Staphylococcus aureus [1] = assay: Antibacterial activity against vancomycin-intermediate Staphylococcus aureus BR5-1 phenotypic revertant after 24 hrs by Etest method; format: functional; conditions: BR5-1, 24 h
# Staphylococcus aureus [2] = assay: Antibacterial activity against vancomycin-intermediate Staphylococcus aureus MI phenotypic revertant after 24 hrs by Etest method; format: functional
# Staphylococcus aureus [3] = assay: Antibacterial activity against vancomycin-susceptible Staphylococcus aureus BR4 after 24 hrs by Etest method; format: functional; conditions: BR4, 24 h
# Staphylococcus aureus [4] = assay: Antibacterial activity against vancomycin-susceptible Staphylococcus aureus N315-LR5-P1 assessed as inhibition of bacterial growth in brain heart infusion broth medium; format: functional
# Staphylococcus aureus [5] = assay: Antibacterial activity against vancomycin-susceptible Staphylococcus aureus MI after 24 hrs by Etest method; format: functional
# Staphylococcus aureus [6] = assay: Antibacterial activity against vancomycin-intermediate Staphylococcus aureus Mu50 phenotypic revertant after 24 hrs by Etest method; format: functional; conditions: Mu50, 24 h
# Staphylococcus aureus [7] = assay: Antibacterial activity against vancomycin-susceptible Staphylococcus aureus BR5-1 after 24 hrs by Etest method; format: functional; conditions: BR5-1, 24 h
# Staphylococcus aureus [8] = assay: Antibacterial activity against vancomycin-susceptible Staphylococcus aureus NJ after 24 hrs by Etest method; format: functional
# Staphylococcus aureus [9] = assay: Antibacterial activity against vancomycin-susceptible Staphylococcus aureus AMC11094 after 24 hrs by Etest method; format: functional; conditions: AMC11094, 24 h
# Staphylococcus aureus [10] = assay: Antibacterial activity against vancomycin-intermediate Staphylococcus aureus 28160 after 24 hrs by Etest method; format: functional; conditions: Staphylococcus aureus, 28160, 24 h
# Staphylococcus aureus [11] = assay: Antibacterial activity against vancomycin-intermediate Staphylococcus aureus BR1 after 24 hrs by Etest method; format: functional; conditions: BR1, 24 h
# Staphylococcus aureus [12] = assay: Antibacterial activity against vancomycin-intermediate Staphylococcus aureus LIM2 after 24 hrs by Etest method; format: functional; conditions: LIM2, 24 h
# Staphylococcus aureus [13] = assay: Antibacterial activity against vancomycin-intermediate Staphylococcus aureus BR3 after 24 hrs by Etest method; format: functional; conditions: BR3, 24 h
# Staphylococcus aureus [14] = assay: Antibacterial activity against vancomycin-intermediate Staphylococcus aureus BR1 phenotypic revertant after 24 hrs by Etest method; format: functional; conditions: BR1, 24 h
# Staphylococcus aureus [15] = assay: Antibacterial activity against vancomycin-intermediate Staphylococcus aureus Mu50 after 24 hrs by Etest method; format: functional; conditions: Mu50, 24 h
# Staphylococcus aureus [16] = assay: Antibacterial activity against vancomycin-intermediate Staphylococcus aureus MI after 24 hrs by Etest method; format: functional
# Staphylococcus aureus [17] = assay: Antibacterial activity against vancomycin-susceptible Staphylococcus aureus 99/3759-V after 24 hrs by Etest method; format: functional
# Staphylococcus aureus [18] = assay: Antibacterial activity against vancomycin-intermediate Staphylococcus aureus BR5-1 after 24 hrs by Etest method; format: functional; conditions: BR5-1, 24 h
# Staphylococcus aureus [19] = assay: Antibacterial activity against vancomycin-intermediate Staphylococcus aureus LIM2 phenotypic revertant after 24 hrs by Etest method; format: functional; conditions: LIM2, 24 h
# Staphylococcus aureus [20] = assay: Antibacterial activity against vancomycin-intermediate Staphylococcus aureus BR4 after 24 hrs by Etest method; format: functional; conditions: BR4, 24 h
# Staphylococcus aureus [21] = assay: Antibacterial activity against vancomycin-susceptible Staphylococcus aureus N315-LR5-P1-3 assessed as inhibition of bacterial growth in Mueller-Hinton broth medium; format: functional
# Staphylococcus aureus [22] = assay: Antibacterial activity against vancomycin-susceptible Staphylococcus aureus N315-LR5-P1-1 assessed as inhibition of bacterial growth in Mueller-Hinton broth medium; format: functional
# Staphylococcus aureus [23] = assay: Antibacterial activity against vancomycin-intermediate Staphylococcus aureus 99/3700-W after 24 hrs by Etest method; format: functional
# Staphylococcus aureus [24] = assay: Antibacterial activity against vancomycin-susceptible Staphylococcus aureus N315-LR5-P1 assessed as inhibition of bacterial growth in Mueller-Hinton broth medium; format: functional
# Staphylococcus aureus [25] = assay: Antibacterial activity against vancomycin-susceptible Staphylococcus aureus N315-LR5-P1-4 assessed as inhibition of bacterial growth in Mueller-Hinton broth medium; format: functional
# Staphylococcus aureus [26] = assay: Antibacterial activity against vancomycin-susceptible Staphylococcus aureus 99/3700-W after 24 hrs by Etest method; format: functional
# Staphylococcus aureus [27] = assay: Antibacterial activity against vancomycin-susceptible Staphylococcus aureus BR1 after 24 hrs by Etest method; format: functional; conditions: BR1, 24 h
# Staphylococcus aureus [28] = assay: Antibacterial activity against vancomycin-intermediate Staphylococcus aureus BR2 after 24 hrs by Etest method; format: functional; conditions: BR2, 24 h
# Staphylococcus aureus [29] = assay: Antibacterial activity against vancomycin-intermediate Staphylococcus aureus 99/3759-V phenotypic revertant after 24 hrs by Etest method; format: functional
# Staphylococcus aureus [30] = assay: Antibacterial activity against vancomycin-intermediate Staphylococcus aureus 99/3759-V after 24 hrs by Etest method; format: functional
# Staphylococcus aureus [31] = assay: Antibacterial activity against vancomycin-susceptible Staphylococcus aureus N315-LR5-P1-4 assessed as inhibition of bacterial growth in brain heart infusion broth medium; format: functional; conditions: N315-LR5-P1-4, Brain
# Staphylococcus aureus [32] = assay: Antibacterial activity against vancomycin-intermediate Staphylococcus aureus 99/3700-W phenotypic revertant after 24 hrs by Etest method; format: functional
# Staphylococcus aureus [33] = assay: Antibacterial activity against vancomycin-intermediate Staphylococcus aureus NJ after 24 hrs by Etest method; format: functional
# Staphylococcus aureus [34] = assay: Antibacterial activity against vancomycin-susceptible Staphylococcus aureus 28160 after 24 hrs by Etest method; format: functional; conditions: Staphylococcus aureus, 28160, 24 h
# Staphylococcus aureus [35] = assay: Antibacterial activity against vancomycin-intermediate Staphylococcus aureus PC after 24 hrs by Etest method
# Staphylococcus aureus [36] = assay: Antibacterial activity against vancomycin-intermediate Staphylococcus aureus AMC11094 after 24 hrs by Etest method; conditions: AMC11094, 24 h
# Staphylococcus aureus [37] = assay: Antibacterial activity against vancomycin-susceptible Staphylococcus aureus N315-LR5-P1-2 assessed as inhibition of bacterial growth in brain heart infusion broth medium; conditions: N315-LR5-P1-2, Brain
# Staphylococcus aureus [38] = assay: Antibacterial activity against vancomycin-intermediate Staphylococcus aureus IL after 24 hrs by Etest method
# Staphylococcus aureus [39] = assay: Antibacterial activity against vancomycin-intermediate Staphylococcus aureus NJ phenotypic revertant after 24 hrs by Etest method
# Staphylococcus aureus [40] = assay: Antibacterial activity against vancomycin-susceptible Staphylococcus aureus Mu50 after 24 hrs by Etest method; conditions: Mu50, 24 h
# Staphylococcus aureus [41] = assay: microbe, parasite or virus in culture; conditions: Staphylococcus aureus, 28160, 24 h
# Description: Antibacterial activity against vancomycin-intermediate Staphylococcus aureus 28160 phenotypic revertant after 24 hrs by Etest method
Structure (SMILES),MIC (Staphylococcus aureus [3]) [µg/mL],MIC (Staphylococcus aureus [4]) [µg/mL],MIC (Staphylococcus aureus [5]) [µg/mL],MIC (Staphylococcus aureus [6]) [µg/mL],MIC (Staphylococcus aureus [7]) [µg/mL],MIC (Staphylococcus aureus [8]) [µg/mL],MIC (Staphylococcus aureus [11]) [µg/mL],MIC (Staphylococcus aureus [13]) [µg/mL],MIC (Staphylococcus aureus [14]) [µg/mL],MIC (Staphylococcus aureus [15]) [µg/mL],MIC (Staphylococcus aureus [16]) [µg/mL],MIC (Staphylococcus aureus [18]) [µg/mL],MIC (Staphylococcus aureus [20]) [µg/mL],MIC (Staphylococcus aureus [21]) [µg/mL],MIC (Staphylococcus aureus [22]) [µg/mL],MIC (Staphylococcus aureus [24]) [µg/mL],MIC (Staphylococcus aureus [25]) [µg/mL],MIC (Staphylococcus aureus [26]) [µg/mL],MIC (Staphylococcus aureus [27]) [µg/mL],MIC (Staphylococcus aureus [28]) [µg/mL],also measured
CC(=O)NC[C@H]1CN(c2ccc(N3CCOCC3)c(F)c2)C(=O)O1 [LINEZOLID],3,3,3,1.5,3,3,1.25,1,1.5,0.38,1.5,1.5,1.5,1.75,2.5,3,1.5,3,1.5,1,MIC (Staphylococcus aureus [1]): 3 µg/mL; MIC (Staphylococcus aureus [2]): 1.5 µg/mL; MIC (Staphylococcus aureus [9]): 3 µg/mL; MIC (Staphylococcus aureus [10]): 1.5 µg/mL; MIC (Staphylococcus aureus [12]): 1 µg/mL; MIC (Staphylococcus aureus [17]): 3 µg/mL; MIC (Staphylococcus aureus [19]): 1.5 µg/mL; MIC (Staphylococcus aureus [23]): 1 µg/mL; MIC (Staphylococcus aureus [29]): 1.5 µg/mL; MIC (Staphylococcus aureus [30]): 1 µg/mL; MIC (Staphylococcus aureus [31]): 1.5 µg/mL; MIC (Staphylococcus aureus [32]): 1.25 µg/mL; MIC (Staphylococcus aureus [33]): 1.25 µg/mL; MIC (Staphylococcus aureus [34]): 3 µg/mL
CN[C@H](CC(C)C)C(=O)N[C@H]1C(=O)N[C@@H](CC(N)=O)C(=O)N[C@H]2C(=O)N[C@H]3C(=O)N[C@H](C(=O)N[C@H](C(=O)O)c4cc(O)cc(O)c4-c4cc3ccc4O)[C@H](O)c3ccc(c(Cl)c3)Oc3cc2cc(c3O[C@@H]2O[C@H](CO)[C@@H](O)[C@H](O)[C@H]2O[C@H]2C[C@](C)(N)[C@H](O)[C@H](C)O2)Oc2ccc(cc2Cl)[C@H]1O [VANCOMYCIN],1.5,1.25,1.25,8,1.25,3,6,8,3,6,8,5,6,2.5,1.25,0.75,3,1.5,1.5,6,MIC (Staphylococcus aureus [35]): 6 µg/mL; MIC (Staphylococcus aureus [36]): 6 µg/mL; MIC (Staphylococcus aureus [37]): 3 µg/mL; MIC (Staphylococcus aureus [38]): 6 µg/mL; MIC (Staphylococcus aureus [39]): 5 µg/mL; MIC (Staphylococcus aureus [40]): 2.5 µg/mL; MIC (Staphylococcus aureus [29]): 8 µg/mL; MIC (Staphylococcus aureus [30]): 5 µg/mL; MIC (Staphylococcus aureus [41]): 3 µg/mL; MIC (Staphylococcus aureus [31]): 5 µg/mL; MIC (Staphylococcus aureus [32]): 3 µg/mL; MIC (Staphylococcus aureus [33]): 8 µg/mL
